This note sets out measurements from ChEMBL document CHEMBL3272037, “Antitumor agents. 21. A proposed mechanism for inhibition of cancer growth by tenulin and helenalin and related cyclopentenones” (J Med Chem, 1977).

As usually defined, the T/C is the result in the treated group divided by that in the control group, in per cent.

In brackets after ≈: the same amount, converted by molar mass. Activity calls are given as the source filed them. No cut-off for these calls is given here.

The test system of data set [1] is Ehrlich. The experiment in a line: Antitumor activity against mouse EAC cells allografted in CF1 mouse assessed as tumor growth inhibition at 33.3 mg/kg/day, ip after 7 days. Type of data set: functional. Conditions: 168 h, route intraperitoneal, read-out: TGI.
The subject of data set [2] is Ehrlich. The experiment in a line: Antitumor activity against mouse EAC cells allografted in CF1 mouse assessed as survival at 33.3 mg/kg/day, ip after 7 days. Format: functional, organism-based.
The nature of data set [3]: Cytotoxicity against human Hep2 cells. The settings on record: HEp-2, read-out: ED50 (the source's name). Format: functional.
For the next data set, the system named is W256. Put plainly: Antitumor activity against rat Walker 256 cells allografted in Sprague-Dawley rat at 2.5 mg/kg/day, ip relative to control. Format: functional. Conditions: route intraperitoneal.
Data set [4] deals with Ehrlich. The experiment in a line: Antitumor activity against mouse EAC cells assessed as tissue SH stimulation at 0.6 mg measured on day 8 by Ellman method relative to control. Type of data set: functional. (Ellman's reagent forms a yellow product with free thiols.)
Another data set deals with P388. The experiment in a line: Antitumor activity against mouse P388 cells allografted in DBA/2 mouse at 25 mg/kg/day, ip relative to control. Format: functional. Conditions: route intraperitoneal.
For data set [5], the system named is Ehrlich. The experiment in a line: Antitumor activity against mouse EAC cells allografted in CF1 mouse assessed as cell viability at 0.125 mg/day administered from day 5 to day 7 measured on day 8 by trypan blue assay relative to control. Type of data set: functional, cell-based.
Data set [6] in a line: Stability of the compound assessed as reactivity with reduced glutathione at 10 mg after 4 hrs by NMR analysis. Format: physicochemical.
Data set [7] has as its system Ehrlich. The experiment in a line: Antitumor activity against mouse EAC cells allografted in CF1 mouse assessed as 3',5' cAMP level at 0.125 mg/day administered from day 5 to day 7 measured on day 8 by RIA relative to control. Type of data set: functional.
The subject of data set [8] is Ehrlich. The experiment in a line: Antitumor activity against mouse EAC cells allografted in CF1 mouse assessed as [methyl-14C]thymidine incorporation to DNA at 0.125 mg/day administered from day 5 to day 7 measured on day 8 by scintillation counting analysis relative to control. Format: functional. Background: Incorporation of labelled thymidine or its analogues reports DNA synthesis.

A short description of data set [9]: Stability of the compound assessed as reactivity with oxidized glutathione at 10 mg after 4 hrs by NMR analysis. Format: physicochemical.
The nature of data set [10]: Binding affinity to dGMP (unknown origin) by NMR analysis.
The subject of data set [11] is Ehrlich. The experiment in a line: Antitumor activity against mouse EAC cells allografted in CF1 mouse assessed as ascitocrit count per mililitre of fluid at 0.125 mg/day administered from day 5 to day 7 measured on day 8 by hemocytometry relative to control. Format: functional.
The test system of data set [12] is Ehrlich. The experiment in a line: Antitumor activity against mouse EAC cells allografted in CF1 mouse assessed as chromatin protein content at 0.125 mg/day administered from day 5 to day 7 measured on day 8 relative to control. Format: functional.
Data set [13] has as its system Ehrlich. The experiment in a line: Antitumor activity against mouse EAC cells allografted in CF1 mouse assessed as DNA content at 0.125 mg/day administered from day 5 to day 7 measured on day 8 by UV-spectrophotometry relative to control. Format: functional.
A short description of data set [14]: Stability of the compound assessed as reactivity with L-cysteine at 10 mg after 4 hrs by NMR analysis. Type of data set: physicochemical.
Data set [15] has as its system Ehrlich. The experiment in a line: Antitumor activity against mouse EAC cells allografted in CF1 mouse assessed as nuclear DNA polymerase activity at 0.125 mg/day administered from day 5 to day 7 measured on day 8 relative to control. Format: functional.
The nature of data set [16]: Binding affinity to DNA (unknown origin) at 0.015 ug at pH 7.2 after 24 hrs by UV-spectrophotometry.
Data set [17] relates to Ehrlich. The experiment in a line: Antitumor activity against mouse EAC cells allografted in CF1 mouse assessed as free lysosomal DNAse activity at 0.125 mg/day administered from day 5 to day 7 measured on day 8 relative to control. Format: functional.
Data set [18] relates to Ehrlich. The experiment in a line: Antitumor activity against mouse EAC cells allografted in CF1 mouse assessed as [gamma-32P] incorporation into histone at 0.125 mg/day administered from day 5 to day 7 measured on day 8 relative to control. Type of data set: functional.
In data set [19] the test system is Ehrlich. Put plainly: Antitumor activity against mouse EAC cells allografted in CF1 mouse assessed as [gamma-32P] incorporation into nonhistone at 0.125 mg/day administered from day 5 to day 7 measured on day 8 relative to control. Type of data set: functional.
Data set [20] is described as follows: Binding affinity to dGTP (unknown origin) at 0.015 ug at pH 7.2 after 24 hrs by UV-spectrophotometry.
A short description of data set [21]: Binding affinity to dATP (unknown origin) at 0.015 ug by UV-spectrophotometry.
A short description of data set [22]: Binding affinity to dAMP (unknown origin) at 0.015 ug by UV-spectrophotometry.
Data set [23] is described as follows: Binding affinity to dGMP (unknown origin) at 0.015 ug at pH 7.2 after 24 hrs by UV-spectrophotometry.
Data set [24] deals with Ehrlich. The experiment in a line: Antitumor activity against mouse EAC cells assessed as nuclear DNA polymerase activity at 0.6 mg measured on day 8 relative to control. Format: functional.
Data set [25] in a line: Stability of the compound assessed as reactivity with histidine at 28 mg after 7 days by NMR analysis. The settings on record: 168 h. Format: physicochemical.
A short description of data set [26]: Stability of the compound assessed as reactivity with L-cysteine by NMR analysis. Format: physicochemical.
A short description of data set [27]: Stability of the compound assessed as reactivity with reduced glutathione at 28 mg after 16 hrs by NMR analysis. Type of data set: physicochemical.
In data set [28] the test system is Ehrlich. The experiment in a line: Antitumor activity against mouse EAC cells allografted in CF1 mouse assessed as 3',5' cAMP level at 0.25 mg/day administered from day 5 to day 7 measured on day 8 by RIA relative to control. Type of data set: functional.
Data set [29] concerns Ehrlich. Put plainly: Antitumor activity against mouse EAC cells allografted in CF1 mouse assessed as cell viability at 0.25 mg/day administered from day 5 to day 7 measured on day 8 by trypan blue assay relative to control. Type of data set: functional, cell-based.
The test system of data set [30] is Ehrlich. The experiment in a line: Antitumor activity against mouse EAC cells allografted in CF1 mouse assessed as nuclear DNA polymerase activity at 0.25 mg/day administered from day 5 to day 7 measured on day 8 relative to control. Type of data set: functional.
Data set [31] relates to Ehrlich. The experiment in a line: Antitumor activity against mouse EAC cells allografted in CF1 mouse assessed as ascitocrit count per mililitre of fluid at 0.25 mg/day administered from day 5 to day 7 measured on day 8 by hemocytometry relative to control. Type of data set: functional.
The subject of data set [32] is Ehrlich. Put plainly: Antitumor activity against mouse EAC cells allografted in CF1 mouse assessed as chromatin protein content at 0.25 mg/day administered from day 5 to day 7 measured on day 8 relative to control. Type of data set: functional.
Data set [33] concerns Ehrlich. Put plainly: Antitumor activity against mouse EAC cells allografted in CF1 mouse assessed as [gamma-32P] incorporation into histone at 0.25 mg/day administered from day 5 to day 7 measured on day 8 relative to control. Format: functional.
Data set [34] concerns Ehrlich. The experiment in a line: Antitumor activity against mouse EAC cells allografted in CF1 mouse assessed as free lysosomal DNAse activity at 0.25 mg/day administered from day 5 to day 7 measured on day 8 relative to control. Type of data set: functional.
Data set [35] relates to Ehrlich. Put plainly: Antitumor activity against mouse EAC cells allografted in CF1 mouse assessed as [methyl-14C]thymidine incorporation to DNA at 0.25 mg/day administered from day 5 to day 7 measured on day 8 by scintillation counting analysis relative to control. Format: functional.
Data set [36] relates to Ehrlich. The experiment in a line: Antitumor activity against mouse EAC cells allografted in CF1 mouse assessed as DNA content at 0.25 mg/day administered from day 5 to day 7 measured on day 8 by UV-spectrophotometry relative to control. Type of data set: functional.

As to `C[C@@H]1C[C@@H]2OC(=O)[C@]3(C)[C@@H]2[C@@H](OC3(C)O)[C@]2(C)C(=O)CC(SC[C@H](N)C(=O)O)[C@@H]12` (stereo partly drawn), in the data set on Ehrlich [1], the inhibition in vivo at 33.3 mg/kg/day stood at 15.8%. In addition, the Survival result with Ehrlich [2] is “Active”. Also, in data set [3], the EC50 stood at 13.7 µg/mL (≈ 32 µM).

Turning to `C=C1C(=O)O[C@@H]2C[C@@H](C)[C@@H]3C=CC(=O)[C@@]3(C)[C@@H](O)[C@H]12` [HELENALIN], the T/C with W256 was determined as 316%; with P388, 127%. Also, the Activity was 183% in the data set with Ehrlich [4]; 292% in the data set on Ehrlich [7]; 12% in the data set on Ehrlich [8]; 70% with Ehrlich [11]; 83% with Ehrlich [12]; 66% in the data set with Ehrlich [13]. Further, the Activity is given as 52% in the data set on Ehrlich [15]; 25% with Ehrlich [17]; 30% in the data set with Ehrlich [18]; 63% with Ehrlich [19]; 35% in the data set on Ehrlich [24]. Moreover, the inhibition in vivo at 33.3 mg/kg/day with Ehrlich [1] worked out at 100%. Besides, the outcome (in the data set with Ehrlich [5]; in [10]; in data set [16]; in data set [20]; in [21]; in data set [22]) was inactive. Further, the outcome in data set [23] was inactive. Moreover, the Stability entry in [6] is reported as “Stable”; in data set [9], “Unstable”; in data set [14], “Stable”. In addition, the EC50 in data set [3] turned out to be 0.1 µg/mL (≈ 0.381 µM).

As to `O=C1C=CCC1`, the T/C with W256 was 188%. Also, the inhibition in vivo at 33.3 mg/kg/day with Ehrlich [1] was 74.8%. Besides, the Survival entry in the data set with Ehrlich [2] is “Active”. The Stability result is listed as “Unstable” in [25], “Stable” in [26] and “Stable” in data set [27]. For the same compound, the EC50 in [3] worked out at 50 µg/mL (≈ 609 µM).

For `C[C@@H]1C[C@H]2OC(=O)[C@@H](C)[C@H]2[C@H](O)[C@]2(C)C(=O)C=C[C@@H]12`, the values for the T/C in the data set with W256 and with P388 were 207% and 134%, respectively. The inhibition in vivo at 33.3 mg/kg/day in the data set on Ehrlich [1] was found to be 100%. Moreover, the Survival entry in the data set on Ehrlich [2] is “Active”. For the same compound, the EC50 in [3] came to 0.814 µg/mL (≈ 3.08 µM).

As to `Sc1ncnc2nc[nH]c12` [MERCAPTOPURINE ANHYDROUS], the inhibition in vivo at 33.3 mg/kg/day with Ehrlich [1] worked out at 99.4%. The Survival result in the data set on Ehrlich [2] was “Active”.

As for `C[C@@H]1C[C@@H]2OC(=O)[C@]3(C)[C@H]2[C@@H](OC3(C)O)[C@]2(C)C(=O)C=C[C@@H]12` (stereo partly drawn) [TENULIN], the Activity is given as 236% in the data set with Ehrlich [28]; 203% in the data set on Ehrlich [4]; 71% with Ehrlich [30]; 43% with Ehrlich [31]; 92% in the data set with Ehrlich [32]; 17% with Ehrlich [33]. Also, the Activity is listed as 29% in the data set with Ehrlich [34], 9% in the data set on Ehrlich [35], 73% in the data set with Ehrlich [36] and 88% in the data set on Ehrlich [24]. The T/C came to 266% with W256 and 131% in the data set with P388. In addition, in the data set with Ehrlich [1], the inhibition in vivo at 33.3 mg/kg/day stood at 97.3%. Moreover, the outcome (in the data set with Ehrlich [29]; in data set [16]; in data set [20]; in [21]; in data set [22]; in data set [23]) was inactive. For the same compound, in the data set on Ehrlich [2], the Survival result was “Active”. For the same compound, the EC50 in data set [3] is 4.5 µg/mL (≈ 14.7 µM).
